Test results published in article PMC7180948, “New Insights into 4-Anilinoquinazolines as Inhibitors of Cardiac Troponin I–Interacting Kinase (TNNi3K)” (Molecules, 2020).

Columns and labels:
Assay in all cases: biochemical
Set-up in all cases: KINOMEscan competition binding panel (Eurofins DiscoverX), single concentration, % inhibition
Details in all cases: read-out: 7 at 1 µM % inhibition
[1] = biological target: MTOR (Homo sapiens, UniProt P42345)
Summary of the method: (§1)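 Values come from single-concentration (1 µM) profiling in the Eurofins DiscoverX KINOMEscan competition-binding platform, which covers over 400 kinases.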

[2] = biological target: T1, YANK3 (Homo sapiens, UniProt Q86UX6)
T1 construct: gene STK32C
Summary of the method: as §1

[3] = biological target: TNK2 (Homo sapiens, UniProt Q07912)
TNK2, sequence (Q07912 whole entry): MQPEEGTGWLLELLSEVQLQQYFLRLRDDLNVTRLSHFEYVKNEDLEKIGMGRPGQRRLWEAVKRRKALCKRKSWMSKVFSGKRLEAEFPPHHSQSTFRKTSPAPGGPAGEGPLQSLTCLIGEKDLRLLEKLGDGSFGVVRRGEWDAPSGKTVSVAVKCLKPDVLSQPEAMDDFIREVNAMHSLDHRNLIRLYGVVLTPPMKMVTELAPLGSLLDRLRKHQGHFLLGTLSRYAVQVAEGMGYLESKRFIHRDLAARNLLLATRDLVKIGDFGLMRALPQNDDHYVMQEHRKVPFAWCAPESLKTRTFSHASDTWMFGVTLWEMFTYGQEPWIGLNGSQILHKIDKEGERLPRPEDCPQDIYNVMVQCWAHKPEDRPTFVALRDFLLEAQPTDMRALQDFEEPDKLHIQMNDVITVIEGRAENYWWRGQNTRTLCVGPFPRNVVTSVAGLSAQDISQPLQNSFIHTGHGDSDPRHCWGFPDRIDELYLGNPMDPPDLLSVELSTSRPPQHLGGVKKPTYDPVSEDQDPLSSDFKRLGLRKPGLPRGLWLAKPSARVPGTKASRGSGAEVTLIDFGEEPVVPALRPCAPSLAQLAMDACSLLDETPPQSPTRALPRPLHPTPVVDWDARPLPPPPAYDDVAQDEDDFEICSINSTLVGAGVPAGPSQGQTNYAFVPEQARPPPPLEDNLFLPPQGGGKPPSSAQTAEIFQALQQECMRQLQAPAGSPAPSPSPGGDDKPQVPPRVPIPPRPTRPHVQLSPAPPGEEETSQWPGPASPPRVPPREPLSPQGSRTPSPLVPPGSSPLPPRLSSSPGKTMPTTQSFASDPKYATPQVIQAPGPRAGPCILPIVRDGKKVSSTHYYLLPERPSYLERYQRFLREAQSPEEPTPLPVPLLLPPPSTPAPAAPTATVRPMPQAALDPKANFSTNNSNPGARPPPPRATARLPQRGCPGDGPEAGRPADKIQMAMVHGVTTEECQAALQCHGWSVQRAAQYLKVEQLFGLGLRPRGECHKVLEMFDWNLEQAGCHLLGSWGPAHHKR
Summary of the method: as §1

[4] = biological target: CDK4 (Homo sapiens, UniProt P11802)
Summary of the method: as §1

[5] = biological target: CAMK4 (Homo sapiens, UniProt Q16566)
Summary of the method: as §1

[6] = biological target: T2, BRK (Homo sapiens, UniProt Q13882)
T2 construct: gene PTK6
Summary of the method: as §1

[7] = biological target: PRKG1 (Homo sapiens, UniProt Q13976)
PRKG1, sequence (Q13976 whole entry): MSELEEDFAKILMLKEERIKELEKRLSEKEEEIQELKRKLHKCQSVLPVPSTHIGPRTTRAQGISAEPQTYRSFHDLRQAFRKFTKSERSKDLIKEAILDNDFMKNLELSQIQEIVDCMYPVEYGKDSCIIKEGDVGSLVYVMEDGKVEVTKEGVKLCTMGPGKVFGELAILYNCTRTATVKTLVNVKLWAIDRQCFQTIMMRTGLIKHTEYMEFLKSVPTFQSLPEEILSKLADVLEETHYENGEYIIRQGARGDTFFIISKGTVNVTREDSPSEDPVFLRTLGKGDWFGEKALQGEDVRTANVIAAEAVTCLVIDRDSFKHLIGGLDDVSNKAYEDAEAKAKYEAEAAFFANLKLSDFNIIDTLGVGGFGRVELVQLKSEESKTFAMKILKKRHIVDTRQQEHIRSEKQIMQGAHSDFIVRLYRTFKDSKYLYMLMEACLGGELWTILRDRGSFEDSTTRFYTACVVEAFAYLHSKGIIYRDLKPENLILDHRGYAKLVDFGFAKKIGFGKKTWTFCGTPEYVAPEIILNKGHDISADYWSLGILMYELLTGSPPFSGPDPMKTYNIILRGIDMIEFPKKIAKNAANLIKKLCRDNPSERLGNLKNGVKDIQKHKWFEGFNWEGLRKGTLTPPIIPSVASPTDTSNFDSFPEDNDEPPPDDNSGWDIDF
Summary of the method: as §1

[8] = biological target: NEK5 (Homo sapiens, UniProt Q6P3R8)
Summary of the method: as §1

[9] = biological target: PAK6 (Homo sapiens, UniProt Q9NQU5)
Summary of the method: as §1

[10] = biological target: RAF1 (Homo sapiens, UniProt P04049)
RAF1, sequence (P04049 whole entry): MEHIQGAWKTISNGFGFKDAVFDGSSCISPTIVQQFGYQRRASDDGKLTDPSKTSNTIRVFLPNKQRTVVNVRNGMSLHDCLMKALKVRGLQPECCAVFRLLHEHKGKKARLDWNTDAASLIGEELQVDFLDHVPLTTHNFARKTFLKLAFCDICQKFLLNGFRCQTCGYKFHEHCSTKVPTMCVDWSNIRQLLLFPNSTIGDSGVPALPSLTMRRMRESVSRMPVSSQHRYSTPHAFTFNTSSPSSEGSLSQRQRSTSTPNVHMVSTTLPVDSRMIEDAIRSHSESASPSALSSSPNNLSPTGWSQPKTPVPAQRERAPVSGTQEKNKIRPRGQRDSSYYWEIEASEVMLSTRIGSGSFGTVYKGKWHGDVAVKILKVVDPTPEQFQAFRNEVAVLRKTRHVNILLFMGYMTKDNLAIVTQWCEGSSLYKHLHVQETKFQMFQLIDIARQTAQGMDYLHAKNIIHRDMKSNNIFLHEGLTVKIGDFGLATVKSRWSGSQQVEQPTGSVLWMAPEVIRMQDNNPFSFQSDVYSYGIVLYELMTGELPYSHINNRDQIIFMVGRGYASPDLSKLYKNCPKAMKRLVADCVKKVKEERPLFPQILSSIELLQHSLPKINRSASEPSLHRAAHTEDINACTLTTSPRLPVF
Summary of the method: as §1

[11] = biological target: ERBB3 (Homo sapiens, UniProt P21860)
Summary of the method: as §1

[12] = biological target: SRPK1 (Homo sapiens, UniProt Q96SB4)
Summary of the method: as §1

[13] = biological target: PLK2 (Homo sapiens, UniProt Q9NYY3)
Summary of the method: as §1

[14] = biological target: TAOK2 (Homo sapiens, UniProt Q9UL54)
Summary of the method: as §1

[15] = biological target: IRAK3 (Homo sapiens, UniProt Q9Y616)
Summary of the method: as §1

[16] = biological target: CSNK2A1 (Homo sapiens, UniProt P68400)
CSNK2A1, sequence (P68400 whole entry): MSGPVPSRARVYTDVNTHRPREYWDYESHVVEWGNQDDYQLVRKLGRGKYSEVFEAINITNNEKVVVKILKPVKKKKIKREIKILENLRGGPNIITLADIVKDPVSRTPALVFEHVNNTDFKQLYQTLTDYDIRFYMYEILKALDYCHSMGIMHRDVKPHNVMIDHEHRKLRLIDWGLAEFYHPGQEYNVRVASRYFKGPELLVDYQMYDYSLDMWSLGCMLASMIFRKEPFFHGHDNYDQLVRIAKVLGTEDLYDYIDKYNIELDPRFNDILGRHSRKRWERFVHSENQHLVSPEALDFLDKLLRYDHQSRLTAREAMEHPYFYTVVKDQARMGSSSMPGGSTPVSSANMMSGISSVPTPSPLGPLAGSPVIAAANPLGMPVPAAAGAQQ
Summary of the method: as §1

[17] = biological target: EGFR(L858R,T790M) (Homo sapiens, UniProt P00533, L858R/T790M)
Summary of the method: as §1

[18] = biological target: EGFR(G719C) (Homo sapiens, UniProt P00533, G719C)
EGFR(G719C), sequence (P00533 whole entry G719C): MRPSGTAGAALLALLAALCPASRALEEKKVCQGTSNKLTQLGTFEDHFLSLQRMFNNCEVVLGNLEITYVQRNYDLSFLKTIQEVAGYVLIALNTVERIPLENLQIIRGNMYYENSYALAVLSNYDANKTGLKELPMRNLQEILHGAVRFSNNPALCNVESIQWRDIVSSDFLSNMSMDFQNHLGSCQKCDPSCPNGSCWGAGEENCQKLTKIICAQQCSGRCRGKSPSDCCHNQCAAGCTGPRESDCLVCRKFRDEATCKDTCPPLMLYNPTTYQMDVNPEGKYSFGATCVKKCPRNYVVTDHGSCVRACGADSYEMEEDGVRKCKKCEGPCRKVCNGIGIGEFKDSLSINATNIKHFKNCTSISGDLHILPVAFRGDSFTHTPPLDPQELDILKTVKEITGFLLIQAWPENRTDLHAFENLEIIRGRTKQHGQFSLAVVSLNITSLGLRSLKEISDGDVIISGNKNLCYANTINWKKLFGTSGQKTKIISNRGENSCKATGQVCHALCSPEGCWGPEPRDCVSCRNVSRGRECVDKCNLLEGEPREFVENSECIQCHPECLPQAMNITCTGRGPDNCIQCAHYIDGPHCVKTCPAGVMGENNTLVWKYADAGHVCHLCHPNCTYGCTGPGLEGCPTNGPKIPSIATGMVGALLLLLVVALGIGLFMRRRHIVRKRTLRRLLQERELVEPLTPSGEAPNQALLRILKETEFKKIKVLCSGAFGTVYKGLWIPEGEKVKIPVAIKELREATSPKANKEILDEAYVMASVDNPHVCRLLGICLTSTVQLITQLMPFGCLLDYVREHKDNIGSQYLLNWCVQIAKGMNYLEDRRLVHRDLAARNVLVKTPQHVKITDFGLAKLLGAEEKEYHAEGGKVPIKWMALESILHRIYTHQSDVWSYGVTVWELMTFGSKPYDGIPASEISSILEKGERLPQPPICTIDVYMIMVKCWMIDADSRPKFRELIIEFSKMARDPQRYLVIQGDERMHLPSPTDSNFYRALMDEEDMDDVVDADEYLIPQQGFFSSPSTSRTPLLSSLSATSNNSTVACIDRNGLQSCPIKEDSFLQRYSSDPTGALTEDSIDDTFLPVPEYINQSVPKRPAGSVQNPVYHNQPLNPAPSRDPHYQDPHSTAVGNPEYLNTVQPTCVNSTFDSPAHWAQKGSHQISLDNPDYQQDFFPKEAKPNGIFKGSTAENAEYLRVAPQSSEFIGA
Summary of the method: as §1

[19] = biological target: TSSK1B (Homo sapiens, UniProt Q9BXA7)
Summary of the method: as §1

[20] = biological target: PAK1 (Homo sapiens, UniProt Q13153)
Summary of the method: as §1

[21] = biological target: T3, ABL1-phosphorylated (Homo sapiens, UniProt P00519)
T3 construct: phosphorylated
T3 sequence (P00519 whole entry): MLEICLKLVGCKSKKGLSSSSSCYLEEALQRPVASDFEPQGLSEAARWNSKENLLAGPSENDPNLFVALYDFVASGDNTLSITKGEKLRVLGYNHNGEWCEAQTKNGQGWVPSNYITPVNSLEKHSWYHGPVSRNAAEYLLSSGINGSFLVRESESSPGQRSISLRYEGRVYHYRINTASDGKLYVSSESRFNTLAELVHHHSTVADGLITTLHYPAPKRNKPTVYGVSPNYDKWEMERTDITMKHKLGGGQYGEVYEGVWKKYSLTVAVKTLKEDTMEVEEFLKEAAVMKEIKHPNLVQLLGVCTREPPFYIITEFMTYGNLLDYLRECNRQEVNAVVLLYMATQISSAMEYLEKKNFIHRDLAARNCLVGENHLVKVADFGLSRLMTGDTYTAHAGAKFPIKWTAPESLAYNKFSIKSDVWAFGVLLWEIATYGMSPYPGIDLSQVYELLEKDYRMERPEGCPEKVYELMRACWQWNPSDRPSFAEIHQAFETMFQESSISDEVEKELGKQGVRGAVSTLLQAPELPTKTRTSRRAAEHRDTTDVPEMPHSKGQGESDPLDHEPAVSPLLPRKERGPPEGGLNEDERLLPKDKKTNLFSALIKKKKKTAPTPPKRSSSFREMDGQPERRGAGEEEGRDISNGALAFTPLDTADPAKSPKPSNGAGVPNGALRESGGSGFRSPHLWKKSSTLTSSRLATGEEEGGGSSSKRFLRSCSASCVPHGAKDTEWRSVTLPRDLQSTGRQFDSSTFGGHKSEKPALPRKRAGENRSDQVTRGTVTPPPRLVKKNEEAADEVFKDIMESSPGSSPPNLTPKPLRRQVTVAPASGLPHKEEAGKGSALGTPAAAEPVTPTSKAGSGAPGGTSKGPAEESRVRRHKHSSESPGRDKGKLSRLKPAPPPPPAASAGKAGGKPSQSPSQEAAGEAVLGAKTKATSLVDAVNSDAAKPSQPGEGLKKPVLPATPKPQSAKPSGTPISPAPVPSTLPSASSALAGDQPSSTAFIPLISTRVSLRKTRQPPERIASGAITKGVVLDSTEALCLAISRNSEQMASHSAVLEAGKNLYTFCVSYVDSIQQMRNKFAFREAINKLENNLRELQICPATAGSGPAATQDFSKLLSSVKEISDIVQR
Summary of the method: as §1

[22] = biological target: ZAP70 (Homo sapiens, UniProt P43403)
Summary of the method: as §1

[23] = biological target: PIK3CG (Homo sapiens, UniProt P48736)
Summary of the method: as §1

[24] = biological target: KIT(V559D,V654A) (Homo sapiens, UniProt P10721, V559D/V654A)
Summary of the method: as §1

CNS(=O)(=O)c1ccc(N(C)C)c(Nc2ncnc3cc(OC)c(OC)cc23)c1 [compound 7, 3-((6,7-dimethoxyquinazolin-4-yl)amino)-4-(dimethylamino)-N-methylbenzenesulfonamide] gave an inhibition at 1 µM [1] of 0%, an inhibition at 1 µM [2] of 0% and an inhibition at 1 µM [3] of 26%. The inhibition at 1 µM [4] was 0%, the inhibition at 1 µM [5] was 0% and the inhibition at 1 µM [6] was 0%. The inhibition at 1 µM [7] was 0%, the inhibition at 1 µM [8] was 25% and the inhibition at 1 µM [9] was 7%. For the same compound, the inhibition at 1 µM [10] was 23%, the inhibition at 1 µM [11] was 31% and the inhibition at 1 µM [12] was 0%. The inhibition at 1 µM [13] was 13%, the inhibition at 1 µM [14] was 20% and the inhibition at 1 µM [15] was 0%. The inhibition at 1 µM [16] was 0%, the inhibition at 1 µM [17] was 7% and the inhibition at 1 µM [18] was 0%. The inhibition at 1 µM [19] was 0%, the inhibition at 1 µM [20] was 0% and the inhibition at 1 µM [21] was 26%. It also gave an inhibition at 1 µM [22] of 53%, an inhibition at 1 µM [23] of 45% and an inhibition at 1 µM [24] of 0%.
